Data from patent publication US9388189B2, “Pyrrolotriazinone derivatives as PI3K inhibitors” (ALMIRALL, S.A., priority 2012, dated 2016).

Molecular target: PI3Kδ (PI3Kd) (Homo sapiens (Human), UniProt O00329)
Assay: PI3K HTRF enzymatic inhibition assay (cell-free), delta isoform
Conditions: read-out: IC50 PI3Kd HTRF; recombinant PI3K delta, [ATP] 15 μM, [PIP2] 2 μM, 30 min preincubation
Excerpt: Compounds were screened for their ability to inhibit PI3Kα (PI3Ka), PI3Kβ (PI3Kb), PI3Kδ (PI3Kd) and PI3Kγ (PI3Kg) using a cell-free based PI3K HTRF™ assay (Millipore, ref. #33-017).
PI-3 Kinase HTRF kit (ref. #33-037) and the different PI3K recombinant isoforms (ref. #14-602, ref. #14-603, ref. #14-604, ref. #15-558 for Alpha, Beta, Delta and Gamma respectively) were purchased at Millipore (expressed in insect cells). ATP was purchased at Sigma Aldrich (ref. #A7699).
The compounds were pre-incubated with the enzyme for 30 min before starting of the catalytic reaction. [PIP2] was used at its Km. […] Time of assay and [Enzyme] were optimized to work in the linear range. Stop and Detection mixtures were used as specified in the Millipore PI-3 Kinase kit.
Reaction time and enzyme concentration in the assay will depend of each batch.
All experiments were analysed using Activity Base software from IDBS and the four-parameter log equation.

Chain of PI3Kδ (PI3Kd) (O00329 whole entry, canonical isoform): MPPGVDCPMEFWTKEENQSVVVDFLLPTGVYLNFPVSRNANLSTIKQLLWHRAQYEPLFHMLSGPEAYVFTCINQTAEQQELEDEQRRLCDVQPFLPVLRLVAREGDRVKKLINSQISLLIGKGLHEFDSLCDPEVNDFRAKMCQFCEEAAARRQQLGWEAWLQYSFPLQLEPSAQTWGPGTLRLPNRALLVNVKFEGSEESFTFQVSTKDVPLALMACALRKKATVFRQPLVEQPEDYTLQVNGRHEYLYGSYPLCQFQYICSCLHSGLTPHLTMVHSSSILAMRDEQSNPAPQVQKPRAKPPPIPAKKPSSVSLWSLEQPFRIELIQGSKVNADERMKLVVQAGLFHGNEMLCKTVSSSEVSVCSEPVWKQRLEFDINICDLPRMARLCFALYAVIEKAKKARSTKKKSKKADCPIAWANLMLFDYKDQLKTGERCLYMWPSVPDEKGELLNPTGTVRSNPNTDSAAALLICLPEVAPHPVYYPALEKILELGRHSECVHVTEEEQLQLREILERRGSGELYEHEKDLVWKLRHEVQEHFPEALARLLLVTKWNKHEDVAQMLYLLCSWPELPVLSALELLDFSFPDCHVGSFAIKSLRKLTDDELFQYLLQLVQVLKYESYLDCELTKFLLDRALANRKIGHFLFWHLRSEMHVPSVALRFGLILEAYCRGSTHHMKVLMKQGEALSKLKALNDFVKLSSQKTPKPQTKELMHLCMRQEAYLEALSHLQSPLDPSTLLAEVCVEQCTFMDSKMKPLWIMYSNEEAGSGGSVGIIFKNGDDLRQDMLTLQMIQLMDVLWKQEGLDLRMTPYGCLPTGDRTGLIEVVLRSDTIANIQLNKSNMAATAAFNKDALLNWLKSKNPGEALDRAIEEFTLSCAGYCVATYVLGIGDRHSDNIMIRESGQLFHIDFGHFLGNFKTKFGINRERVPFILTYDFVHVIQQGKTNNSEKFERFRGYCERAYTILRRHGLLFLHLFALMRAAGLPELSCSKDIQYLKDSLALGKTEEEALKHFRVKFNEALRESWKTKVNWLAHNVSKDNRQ
Chain of PI3Kδ (PI3Kd) (P27986 whole entry partner, canonical isoform): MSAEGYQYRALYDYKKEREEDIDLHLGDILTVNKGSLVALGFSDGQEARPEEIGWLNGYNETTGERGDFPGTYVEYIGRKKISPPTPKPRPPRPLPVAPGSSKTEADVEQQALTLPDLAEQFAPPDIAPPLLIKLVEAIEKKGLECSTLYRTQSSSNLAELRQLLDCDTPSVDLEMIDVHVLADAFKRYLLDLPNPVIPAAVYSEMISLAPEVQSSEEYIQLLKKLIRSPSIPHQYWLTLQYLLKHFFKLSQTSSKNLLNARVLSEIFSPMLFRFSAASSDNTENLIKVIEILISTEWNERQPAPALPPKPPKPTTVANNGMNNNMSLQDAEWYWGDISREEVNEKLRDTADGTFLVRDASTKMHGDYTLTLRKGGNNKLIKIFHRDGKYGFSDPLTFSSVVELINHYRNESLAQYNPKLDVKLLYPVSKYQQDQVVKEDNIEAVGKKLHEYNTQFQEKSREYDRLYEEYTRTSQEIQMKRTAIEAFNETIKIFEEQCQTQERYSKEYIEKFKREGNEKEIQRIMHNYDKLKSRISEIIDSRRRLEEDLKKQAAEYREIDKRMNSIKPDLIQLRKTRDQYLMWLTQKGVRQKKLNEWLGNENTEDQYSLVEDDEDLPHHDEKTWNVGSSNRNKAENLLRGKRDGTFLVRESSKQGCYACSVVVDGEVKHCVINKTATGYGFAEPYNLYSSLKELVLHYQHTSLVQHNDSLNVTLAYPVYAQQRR

IC50	Compound
22 nM	C[C@H](Nc1ncnc(N)c1-c1nccs1)c1nn2cccc2c(=O)n1-c1ccccc1 [Example 2, (S)-2-(1-((6-Amino-5-(thiazol-2-yl)pyrimidin-4-yl)amino)ethyl)-3-phenylpyrrolo[2,1-f][1,2,4]triazin-4(3H)-one]
40 nM	C[C@H](Nc1ncnc(N)c1-c1ccc(N)nc1)c1nn2cccc2c(=O)n1-c1ccccc1 [Example 3, (S)-2-(1-((6-Amino-5-(6-aminopyridin-3-yl)pyrimidin-4-yl)amino)ethyl)-3-phenylpyrrolo[2,1-f][1,2,4]triazin-4(3H)-one]
17 nM	C[C@H](Nc1ncnc(N)c1-c1cnn(CCO)c1)c1nn2cccc2c(=O)n1-c1ccccc1 [Example 5, (S)-2-(1-((6-Amino-5-(1-(2-hydroxyethyl)-1H-pyrazol-4-yl)pyrimidin-4-yl)amino)ethyl)-3-phenylpyrrolo[2,1-f][1,2,4]triazin-4(3H)-one]
11 nM	C[C@H](Nc1ncnc(N)c1-c1cc(O)cc(F)c1)c1nn2cccc2c(=O)n1-c1ccccc1 [Example 7, (S)-2-(1-((6-Amino-5-(3-fluoro-5-hydroxyphenyl)pyrimidin-4-yl)amino)ethyl)-3-phenylpyrrolo[2,1-f][1,2,4]triazin-4(3H)-one]
3 nM	Cc1ccn2nc([C@H](C)Nc3ncnc(N)c3-c3ccc4cc[nH]c4c3)n(-c3ccccc3)c(=O)c12 [Example 15, (S)-2-(1-((6-Amino-5-(1H-indol-6-yl)pyrimidin-4-yl)amino)ethyl)-5-methyl-3-phenylpyrrolo[2,1-f][1,2,4]triazin-4(3H)-one]
5 nM	Cc1ccn2nc([C@H](C)Nc3ncnc(N)c3-c3cnc(N)nc3)n(-c3ccccc3)c(=O)c12 [Example 16, (S)-2-(1-((2′,6-Diamino-[5,5′-bipyrimidin]-4-yl)amino)ethyl)-5-methyl-3-phenylpyrrolo[2,1-f][1,2,4]triazin-4(3H)-one]
6 nM	N#Cc1c(N)ncnc1N[C@@H](CCOCc1ccccc1)c1nn2ccc(C#N)c2c(=O)n1-c1cc(F)cc(F)c1 [Example 17, (S)-2-(1-((6-Amino-5-cyanopyrimidin-4-yl)amino)-3-(benzyloxy)propyl)-3-(3,5-difluorophenyl)-4-oxo-3,4-dihydropyrrolo[2,1-f][1,2,4]triazine-5-carbonitrile]
95 nM	N#Cc1c(N)ncnc1N[C@@H](CCSCc1ccccc1)c1nn2cccc2c(=O)n1-c1ccccc1 [Example 19, (S)-4-Amino-6-((3-(benzylthio)-1-(4-oxo-3-phenyl-3,4-dihydropyrrolo[2,1-f][1,2,4]triazin-2-yl)propyl)amino)pyrimidine-5-carbonitrile]
1 nM	N#Cc1c(N)ncnc1N[C@@H](CCOc1ccccc1)c1nn2cccc2c(=O)n1-c1ccccc1 [Example 20, (S)-4-Amino-6-((1-(4-oxo-3-phenyl-3,4-dihydropyrrolo[2,1-f][1,2,4]triazin-2-yl)-3-phenoxypropyl)amino)pyrimidine-5-carbonitrile]
12 nM	COc1ncc(-c2c(N)ncnc2N[C@@H](C)c2nn3ccc(C)c3c(=O)n2-c2ccccc2)cc1NS(=O)(=O)c1ccc(F)cc1 [Example 22, (S)—N-(5-(4-Amino-6-((1-(5-methyl-4-oxo-3-phenyl-3,4-dihydropyrrolo[2,1-f][1,2,4]triazin-2-yl)ethyl)amino)pyrimidin-5-yl)-2-methoxypyridin-3-yl)-4-fluorobenzenesulfonamide]
97 nM	N#Cc1ccn2nc([C@H](CCOCc3ccccc3)Nc3ncnc(N)c3-c3cc(O)cc(F)c3)n(-c3cc(F)cc(F)c3)c(=O)c12 [Example 24, (S)-2-(1-((6-Amino-5-(3-fluoro-5-hydroxyphenyl)pyrimidin-4-yl)amino)-3-(benzyloxy)propyl)-3-(3,5-difluorophenyl)-4-oxo-3,4-dihydropyrrolo[2,1-f][1,2,4]triazine-5-carbonitrile]
1 nM	Cc1ccn2nc([C@H](C)Nc3ncnc4[nH]cc(-c5cc(O)cc(F)c5)c34)n(-c3ccccc3)c(=O)c12 [Example 27, (S)-2-(1-((5-(3-Fluoro-5-hydroxyphenyl)-7H-pyrrolo[2,3-d]pyrimidin-4-yl)amino)ethyl)-5-methyl-3-phenylpyrrolo[2,1-f][1,2,4]triazin-4(3H)-one]
5 nM	Cc1ccn2nc([C@H](C)Nc3ncnc(N)c3-c3cc(O)cc(C(F)(F)F)c3)n(-c3ccccc3)c(=O)c12 [Example 28, (S)-2-(1-((6-Amino-5-(3-hydroxy-5-(trifluoromethyl)phenyl)pyrimidin-4-yl)amino)ethyl)-5-methyl-3-phenylpyrrolo[2,1-f][1,2,4]triazin-4(3H)-one]
12 nM	C[C@H](Nc1ncnc(N)c1-c1cc(O)cc(F)c1)c1nn2ccc(Sc3ccccc3)c2c(=O)n1-c1ccccc1 [Example 34, (S)-2-(1-((6-Amino-5-(3-fluoro-5-hydroxyphenyl)pyrimidin-4-yl)amino)ethyl)-3-phenyl-5-(phenylthio)pyrrolo[2,1-f][1,2,4]triazin-4(3H)-one]
4 nM	Cc1ccn2nc([C@H](C)Nc3ncncc3-c3cc(O)cc(F)c3)n(-c3ccccc3)c(=O)c12 [Example 35, (S)-2-(1-((5-(3-Fluoro-5-hydroxyphenyl)pyrimidin-4-yl)amino)ethyl)-5-methyl-3-phenylpyrrolo[2,1-f][1,2,4]triazin-4(3H)-one]
5 nM	Cc1ccn2nc([C@H](C)Nc3ncnc4[nH]cc(C(=O)OCc5ccccc5)c34)n(-c3ccccc3)c(=O)c12 [Example 37, (S)-Benzyl 4-((1-(5-methyl-4-oxo-3-phenyl-3,4-dihydropyrrolo[2,1-f][1,2,4]triazin-2-yl)ethyl)amino)-7H-pyrrolo[2,3-d]pyrimidine-5-carboxylate]
30 nM	COc1cccc(Cc2ccn3nc([C@H](C)Nc4ncnc(N)c4C#N)n(-c4ccccc4)c(=O)c23)c1 [Example 40, (S)-4-Amino-6-((1-(5-(3-methoxybenzyl)-4-oxo-3-phenyl-3,4-dihydropyrrolo[2,1-f][1,2,4]triazin-2-yl)ethyl)amino)pyrimidine-5-carbonitrile]
3 nM	Cc1ccn2nc([C@H](C)Nc3ncnc4[nH]cc(Cc5cccc(O)c5)c34)n(-c3ccccc3)c(=O)c12 [Example 43, (S)-2-(1-((5-(3-Hydroxybenzyl)-7H-pyrrolo[2,3-d]pyrimidin-4-yl)amino)ethyl)-5-methyl-3-phenylpyrrolo[2,1-f][1,2,4]triazin-4(3H)-one]
2 nM	COc1ncc(-c2c[nH]c3ncnc(N[C@@H](C)c4nn5ccc(C)c5c(=O)n4-c4ccccc4)c23)cc1NS(C)(=O)=O [Example 45, (S)—N-(2-Methoxy-5-(4-((1-(5-methyl-4-oxo-3-phenyl-3,4-dihydropyrrolo[2,1-f][1,2,4]triazin-2-yl)ethyl)amino)-7H-pyrrolo[2,3-d]pyrimidin-5-yl)pyridin-3-yl)methanesulfonamide]
1 nM	Cc1ccn2nc([C@H](C)Nc3ncnc4[nH]cc(-c5cccc6[nH]ncc56)c34)n(-c3ccccc3)c(=O)c12 [Example 52]
10 nM	Cc1ccn2nc([C@H](C)Nc3ncnc4sccc34)n(-c3ccccc3)c(=O)c12 [Example 59, (S)-5-Methyl-3-phenyl-2-(1-(thieno[2,3-d]pyrimidin-4-ylamino)ethyl)pyrrolo[2,1-f][1,2,4]triazin-4(3H)-one]
16 nM	Cc1ccn2nc([C@H](C)Nc3ncnc(N)c3Cc3cccc(O)c3)n(-c3ccccc3)c(=O)c12 [Example 64, (S)-2-(1-((6-Amino-5-(3-hydroxybenzyl)pyrimidin-4-yl)amino)ethyl)-5-methyl-3-phenylpyrrolo[2,1-f][1,2,4]triazin-4(3H)-one]
36 nM	C[C@H](Nc1ncnc(N)c1C#N)c1nn2ccc(Cc3cccc(O)c3)c2c(=O)n1-c1ccccc1 [Example 74, (S)-4-Amino-6-((1-(5-(3-hydroxybenzyl)-4-oxo-3-phenyl-3,4-dihydropyrrolo[2,1-f][1,2,4]triazin-2-yl)ethyl)amino)pyrimidine-5-carbonitrile]
0.8 nM	Cc1ccn2nc([C@H](C)Nc3ncnc4[nH]cc(-c5cc(NS(C)(=O)=O)cc(N(C)C)c5)c34)n(-c3ccccc3)c(=O)c12 [Example 76, (S)—N-(3-(Dimethylamino)-5-(4-((1-(5-methyl-4-oxo-3-phenyl-3,4-dihydropyrrolo[2,1-f][1,2,4]triazin-2-yl)ethyl)amino)-7H-pyrrolo[2,3-d]pyrimidin-5-yl)phenyl)methanesulfonamide]
0.4 nM	Cc1ccn2nc([C@H](C)Nc3ncnc4[nH]cc(Cc5cc(O)cc(F)c5)c34)n(-c3ccccc3)c(=O)c12 [Example 78, (S)-2-(1-((5-(3-Fluoro-5-hydroxybenzyl)-7H-pyrrolo[2,3-d]pyrimidin-4-yl)amino)ethyl)-5-methyl-3-phenylpyrrolo[2,1-f][1,2,4]triazin-4(3H)-one]
0.3 nM	Cc1ccn2nc([C@H](C)Nc3ncnc4[nH]cc(C#Cc5ccccc5)c34)n(-c3ccccc3)c(=O)c12 [Example 80, (S)-5-Methyl-3-phenyl-2-(1-((5-(phenylethynyl)-7H-pyrrolo[2,3-d]pyrimidin-4-yl)amino)ethyl)pyrrolo[2,1-f][1,2,4]triazin-4(3H)-one]
0.3 nM	Cc1ccn2nc([C@H](C)Nc3ncnc4[nH]cc(-c5cccc(S(=O)(=O)N6CCOCC6)c5)c34)n(-c3ccccc3)c(=O)c12 [Example 85, (S)-5-Methyl-2-(1-((5-(3-(morpholinosulfonyl)phenyl)-7H-pyrrolo[2,3-d]pyrimidin-4-yl)amino)ethyl)-3-phenylpyrrolo[2,1-f][1,2,4]triazin-4(3H)-one]
2 nM	Cc1ccn2nc([C@H](C)Nc3ncnc4[nH]cc(Sc5ccc(O)cc5)c34)n(-c3ccccc3)c(=O)c12 [Example 97, (S)-2-(1-((5-((4-Hydroxyphenyl)thio)-7H-pyrrolo[2,3-d]pyrimidin-4-yl)amino)ethyl)-5-methyl-3-phenylpyrrolo[2,1-f][1,2,4]triazin-4(3H)-one]

Compound	IC50
C[C@H](Nc1ncnc(N)c1-c1nnn[nH]1)c1nn2cccc2c(=O)n1-c1ccccc1 [Example 1, (S)-2-(1-(6-Amino-5-(1H-tetrazol-5-yl)pyrimidin-4-ylamino)ethyl)-3-phenylpyrrolo[1,2-f][1,2,4]triazin-4(3H)-one]	15 nM
